Test results published in ChEMBL document CHEMBL3243983, “2-(Alkoxyaryl)-2-imidazoline monoamine oxidase inhibitors with antidepressant activity” (J Med Chem, 1978).
Active and inactive are the calls of the source. The calls are words filed in the database; no cut-off is given here.

Key:
[1] = Inhibition of MAO in mouse brain using serotonin as substrate; format: tissue-based
[2] = tested on: Mus musculus; test: Antidepressant activity in mouse assessed as antagonism of tetrabenazine-induced symptoms at 10 mg/kg, ip administered 30 mins before 35 mg/kg, ip tetrabenazine challenge measured after 30 mins by arousal test; format: functional
[3] = species: Rattus norvegicus; test: Irreversible inhibition of MAO in rat brain using serotonin as substrate measured after dilution; format: tissue-based
[4] = species: Rattus norvegicus; test: Inhibition of MAO in rat brain using serotonin as substrate preincubated for 15 mins; format: tissue-based
[5] = species: Rattus norvegicus; test: Irreversible inhibition of MAO in rat brain using serotonin as substrate preincubated for 15 mins measured after dialysis; format: tissue-based

SMILES | IC50 [1] | inhibition (INH) [2] | inhibition [3] | inhibition [4] | inhibition [5]
CCCCOc1c(CCC)cc(C2=NCCN2)c2ccccc12 | 4900 nM | <30% |  |  | 
c1ccc2c(c1)cc(C1=NCCN1)c1ccccc12 | 35000 nM | <30% |  |  | 
CCCCCCOc1ccc2c(C3=NCCN3)cccc2c1 | 3400 nM | <30% |  |  | 
Oc1ccc(C2=NCCN2)c2ccccc12 | 12000 nM | <30% |  |  | 
CCCCCCCOc1ccc(C2=NCCN2)c2ccccc12 | 400 nM | <30% | Active | 91% | 93%
C#CCN(C)Cc1ccccc1 [PARGYLINE] | 1200 nM | 60% |  |  | 
CCCCCOc1ccc(C2=NCCN2)c2ccccc12 | 91 nM | 50% |  |  | 
CCCCOc1ccc(C2=NC(C)(C)CN2)c2ccccc12.Cl | 6000 nM | <30% |  |  | 
CCCCCCOc1ccc(C2=NCCN2)c2ccccc12 | 350 nM | 40% |  |  | 

Further lines, with some results ahead:

IC50 [1] | SMILES | inhibition (INH) [2] | inhibition [3] | inhibition [4] | inhibition [5]
60 nM | CCCCOc1ccc(C2=NC(C)CN2)c2ccccc12 (stereo unspecified) | <60% |  |  | 
91 nM | CCCOc1ccc(C2=NCCN2)c2ccccc12 | 60% |  |  | 
50 nM | CCCCOc1ccc(C2=NCCCN2)c2ccccc12 | 30% |  |  | 
32 nM | CCCCOc1ccc2c(C3=NCCN3)cccc2c1 | 60% |  |  | 
58 nM | CCCCOc1ccc(C2=NCCN2)c2ccccc12 | 60% | Active | 96% | 77%
54 nM | CCOc1ccc(C2=NCCN2)c2ccccc12 | 50% |  |  | 
